We go through 29 compounds from patent US20080039455A1, “PYRAZOLOPYRIMIDINES AND SALTS THEREOF, PHARMACEUTICAL COMPOSITIONS COMPRISING SAME, METHODS OF PREPARING SAME AND USES OF SAME” (priority 2006, published 2008).

The assay has as its target T1, human recombinant ALK1 (GST fused to ALK1 intracellular domain [His142-Gln503]) (Homo sapiens, UniProt P37023).
T1 construct: GST fused to ALK1 intracellular domain [His142-Gln503]; made in house
T1 sequence (P37023 142-503): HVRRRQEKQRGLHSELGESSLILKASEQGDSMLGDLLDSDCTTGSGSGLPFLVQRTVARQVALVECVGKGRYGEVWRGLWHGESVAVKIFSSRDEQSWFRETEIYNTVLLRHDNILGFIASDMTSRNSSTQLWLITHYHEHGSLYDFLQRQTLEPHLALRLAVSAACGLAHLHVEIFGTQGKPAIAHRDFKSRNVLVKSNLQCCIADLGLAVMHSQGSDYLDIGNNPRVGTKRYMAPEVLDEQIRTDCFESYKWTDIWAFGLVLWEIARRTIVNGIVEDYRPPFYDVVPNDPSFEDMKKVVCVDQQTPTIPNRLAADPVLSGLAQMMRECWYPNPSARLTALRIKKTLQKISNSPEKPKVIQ
The experiment in a line: ALK1-Kinase Flashplate-Assay. The assay is classed as biochemical. To be noted: 0.5 μM ATP, biotinylated α-casein substrate; read-out: Assay 1 (ALK1-Kinase Flashplate-Assay IC50 class). An excerpt:
Biological Assay 1: ALK1-Kinase Flashplate-Assay
ALK1 phosphorylates serine/threonine residues of the biotinylated substrate bovine α-casein in the presence of [γ-^33P]ATP. Detection of the radiolabeled phosphorylated product is achieved by binding to streptavidine-coated Flashplates. The biotin moieties of biotinylated casein bind with high affinity to the streptavidine. The radiolabeled biotinylated casein produced by the ALK1 kinase reaction is able to generate a […] signal when strepatavidine-mediated binding occurs to the scintillant-containing surface of the Flashplates due to the close proximity of the radiolabel and the scintillant. […] The signals obtained are therefore indicative of the ALK1 kinase activity. Measurement is performed in a Perkin-Elmer TopCount or Perkin-Elmer ViewLux instrument.
Enzyme: Purified human recombinant ALK1 (GST fused to ALK1 intracellular domain [His142-Gln503]) produced in-house, aliquots stored at −80° C.;
Diluted enzyme working solution: 2.5 ng/μl ALK1 (in assay buffer) freshly prepared and chilled on ice until use.
Substrate: biotinylated bovine α-casein. Unbiotinylated casein obtained from Sigma was biotinylated by standard procedures using N-hydroxysuccinimide (NHS) ester of biotin.
Substrate working solution: 0.83 μM ATP, 1.67 μM biotinylated a-casein, 7.4 nCi [γ-^33P]ATP/μl in assay buffer
Assay plates: 384-well plates, small volume, white, Greiner (# 784075)
Flashplates: Streptavidin-coated Flashplates, Perkin Elmer (384-well # SPM410A)
Assay buffer: 50 mM Tris/HCl pH 8.0, 1 mM MnCl2, 1 mM DTT, 0.01% NP40, 0.5× Complete EDTA-free
Stop solution: 33.3 μM ATP, 33.3 mM EDTA, 0.07% Triton X-100 in PBS
Saturating buffer for Flashplates: 100 μM ATP, 0.2% Triton X-100 in PBS
Sealing tape: Greiner (# 676080)
Protocol for small volume 5 μl assay (all steps are performed at 20° C., pipetted with CyBi-Well and Multidrop Micro): • 1. 50 nl or 250 nl compound in 100% DMSO • 2. addition of 3 μl substrate working solution with CyBi-Well pipettor • 3. addition of 2 μl enzyme working solution with Multidrop Micro incubation for 60 min at room temperature • 4. addition of 15 μl Stop solution with CyBi-Well pipettor • 5. transfer of 18 μl assay mixture to Flashplates** with CyBi-Well pipettor incubation for at least 3 h at room temperature or over night at 4° C. to allow binding to the streptavidine-coated Flashplates • 6. washing the Flashplates 3 times with 50 μl PBS without Ca++ and Mg++ • 7. sealing with sealing tape • 8. Measurement in Topcount (60 sec/well) **Saturation of Flashplates: The Flashplates are preincubated for at least 1 hour with 50 μl saturating buffer. Remove 18 μl from the 50 μl and transfer 18 μl of the assay mixture to the Flashplate.
Final concentrations, calculated for 5 μl reaction volume: ALK1 5 ng/well; 1 μM biotinylated α-casein; 0.5 μM ATP; 22 nCi/well [γ-^33P]ATP; 1 mM MnCl2; 1 mM DTT; 50 mM Tris-HCl; pH 8.0; 0.01% NP40; 0.5× Complete EDTA-free; 1% or 5% DMSO.
The data were normalised (enzyme reaction without inhibitor=0% inhibition, enzyme reaction in the presence of 10 mM EDTA=100% inhibition) and IC50 values were calculated by a 4 parameter fit using an in-house software.

As for `CC(C)c1ccc(Nc2ccn3ncc(-c4cccc(C(=O)NCCN(C)C)c4)c3n2)cc1` [Example 1, N-(2-dimethylamino-ethyl)-3-[5-(4-isopropyl-phenylamino)-pyrazolo[1,5-a]pyrimidin-3-yl]-benzamide], the IC50 was less than 1 µM. On to `COc1cc(Nc2ccn3ncc(-c4ccncc4)c3n2)cc(OC)c1OC` [Example 4, (3-Pyridin-4-yl-pyrazolo[1,5-a]pyrimidin-5-yl)-(3,4,5-trimethoxy-phenyl)-amine], for which the IC50 lay in the range of 1 to 10 µM.

For `COc1ccc(Nc2ccn3ncc(-c4ccc(O)cc4)c3n2)cn1` [Example 13, 4-[5-(6-Methoxy-pyridin-3-ylamino)-pyrazolo[1,5-a]pyrimidin-3-yl]-phenol], the IC50 fell in the range of 1 to 10 µM. With `COc1ccc(-c2cnn3ccc(Nc4ccc5[nH]ccc5c4)nc23)cc1OC` [Example 17, [3-(3,4-Dimethoxy-phenyl)-pyrazolo[1,5-a]pyrimidin-5-yl]-(1H-indol-5-yl)-amine], the concentration for half-maximal inhibition (IC50) was less than 1 µM. As for `Oc1ccc(-c2cnn3ccc(Nc4ccc5[nH]ccc5c4)nc23)cc1` [Example 18, 4-[5-(1H-Indol-5-ylamino)-pyrazolo[1,5-a]pyrimidin-3-yl]-phenol], the figure is 1 to 10 µM; as for `CC(=O)Nc1cccc(-c2cnn3ccc(Nc4ccc5[nH]ccc5c4)nc23)c1` [Example 19, N-{3-[5-(1H-Indol-5-ylamino)-pyrazolo[1,5-a]pyrimidin-3-yl]-phenyl}-acetamide], less than 1 µM. On to `Oc1ccc(-c2cnn3ccc(Nc4ccc(N5CCOCC5)cc4)nc23)cc1` [Example 28, 4-[5-(4-Morpholin-4-yl-phenylamino)-pyrazolo[1,5-a]pyrimidin-3-yl]-phenol], for which the IC50 is 1 to 10 µM. Under `CC(=O)Nc1cccc(-c2cnn3ccc(Nc4ccc(N5CCOCC5)cc4)nc23)c1` [Example 29, N-{3-[5-(4-Morpholin-4-yl-phenylamino)-pyrazolo[1,5-a]pyrimidin-3-yl]-phenyl}-acetamide] stands 1 to 10 µM; under `COc1ccc(-c2cnn3ccc(Nc4ccc(Oc5ccccc5)cc4)nc23)cc1OC` [Example 33, [3-(3,4-Dimethoxy-phenyl)-pyrazolo[1,5-a]pyrimidin-5-yl]-(4-phenoxy-phenyl)-amine], 1 to 10 µM; under `CC(C)c1ccc(Nc2ccn3ncc(-c4ccncc4)c3n2)cc1` [Example 36, (4-Isopropyl-phenyl)-(3-pyridin-4-yl-pyrazolo[1,5-a]pyrimidin-5-yl)-amine], 1 to 10 µM. As for `COc1ccc(-c2cnn3ccc(Nc4ccc(C(C)C)cc4)nc23)cc1OC` [Example 37, [3-(3,4-Dimethoxy-phenyl)-pyrazolo[1,5-a]pyrimidin-5-yl]-(4-isopropyl-phenyl)-amine], the figure is 1 to 10 µM. As for `NC(=O)c1cccc(-c2cnn3ccc(Nc4ccc(Oc5ccccc5)cc4)nc23)c1` [Example 38, 3-[5-(4-Phenoxy-phenylamino)-pyrazolo[1,5-a]pyrimidin-3-yl]-benzamide], the figure is 1 to 10 µM; as for `CS(=O)(=O)Nc1cccc(-c2cnn3ccc(Nc4ccc(Oc5ccccc5)cc4)nc23)c1` [Example 42, N-{3-[5-(4-Phenoxy-phenylamino)-pyrazolo[1,5-a]pyrimidin-3-yl]-phenyl}-methanesulfonamide], 1 to 10 µM. Regarding `Oc1ccc(Nc2ccn3ncc(-c4ccc5c(c4)OCO5)c3n2)cc1` [Example 45, 4-(3-Benzo[1,3]dioxol-5-yl-pyrazolo[1,5-a]pyrimidin-5-ylamino)-phenol], the IC50 was 1 to 10 µM.

As for `COc1ncc(-c2cnn3ccc(Nc4ccc(O)cc4)nc23)c(OC)n1` [Example 46, 4-[3-(2,4-Dimethoxy-pyrimidin-5-yl)-pyrazolo[1,5-a]pyrimidin-5-ylamino]-phenol], the IC50 was less than 1 µM. As for `Oc1ccc(Nc2ccn3ncc(-c4ccsc4)c3n2)cc1` [Example 48, 4-(3-Thiophen-3-yl-pyrazolo[1,5-a]pyrimidin-5-ylamino)-phenol], the figure is less than 1 µM; as for `Oc1ccc(Nc2ccn3ncc(-c4ccc(O)cc4)c3n2)cc1` [Example 49, 4-[5-[(4-hydroxyphenyl)amino]pyrazolo[1,5-a]pyrimidin-3-yl]-phenol], less than 1 µM. Under `CC(=O)Nc1cccc(-c2cnn3ccc(Nc4ccc(O)cc4)nc23)c1` [Example 50, N-{3-[5-(4-Hydroxy-phenylamino)-pyrazolo[1,5-a]pyrimidin-3-yl]-phenyl}-acetamide] stands less than 1 µM; under `Cc1ccc(S(=O)(=O)Nc2ccc(Nc3ccn4ncc(-c5ccncc5)c4n3)cc2)cc1` [Example 51, 4-Methyl-N-[4-(3-pyridin-4-yl-pyrazolo[1,5-a]pyrimidin-5-ylamino)-phenyl]-benzenesulfonamide], less than 1 µM. Under `Cc1ccc(S(=O)(=O)Nc2ccc(Nc3ccn4ncc(-c5cccnc5)c4n3)cc2)cc1` [Example 52, 4-Methyl-N-[4-(3-pyridin-3-yl-pyrazolo[1,5-a]pyrimidin-5-ylamino)-phenyl]-benzenesulfonamide] stands less than 1 µM; under `COc1ccc(-c2cnn3ccc(Nc4ccc(NS(=O)(=O)c5ccc(C)cc5)cc4)nc23)cc1OC` [Example 56, N-{4-[3-(3,4-Dimethoxy-phenyl)-pyrazolo[1,5-a]pyrimidin-5-ylamino]-phenyl}-4-methyl-benzenesulfonamide], less than 1 µM; under `Cc1ccc(Nc2ccn3ncc(-c4ccc(O)cc4)c3n2)cc1NS(C)(=O)=O` [Example 60, N-{5-[3-(4-Hydroxy-phenyl)-pyrazolo[1,5-a]pyrimidin-5-ylamino]-2-methyl-phenyl}-methanesulfonamide], less than 1 µM.

For `c1cc(CNc2ccn3ncc(-c4ccc5c(c4)OCO5)c3n2)ccn1` [Example 61, (3-Benzo[1,3]dioxol-5-yl-pyrazolo[1,5-a]pyrimidin-5-yl)-pyridin-4-ylmethyl-amine], the IC50 was less than 1 µM. Under `c1cc(CNc2ccn3ncc(-c4ccsc4)c3n2)ccn1` [Example 63, Pyridin-4-ylmethyl-(3-thiophen-3-yl-pyrazolo[1,5-a]pyrimidin-5-yl)-amine] stands less than 1 µM. As for `c1ccc2sc(-c3cnn4ccc(NCc5ccncc5)nc34)cc2c1` [Example 64, (3-Benzo[b]thiophen-2-yl-pyrazolo[1,5-a]pyrimidin-5-yl)-pyridin-4-ylmethyl-amine], the figure is less than 1 µM; as for `COc1ccc(-c2cnn3ccc(NCc4ccncc4)nc23)cc1OC` [Example 65, [3-(3,4-Dimethoxy-phenyl)-pyrazolo[1,5-a]pyrimidin-5-yl]-pyridin-4-ylmethyl-amine], less than 1 µM; as for `Oc1ccc(-c2cnn3ccc(NCc4ccncc4)nc23)cc1` [Example 66, 4-{5-[(Pyridin-4-ylmethyl)-amino]-pyrazolo[1,5-a]pyrimidin-3-yl}-phenol], less than 1 µM.

In the case of `OC1CCC(Nc2ccn3ncc(-c4cccnc4)c3n2)CC1` (centres unmarked) [Example 67, 4-(3-Pyridin-3-yl-pyrazolo[1,5-a]pyrimidin-5-ylamino)-cyclohexanol], the IC50 is 1 to 10 µM.

On to `COc1ccc(-c2cnn3ccc(NC4CCC(O)CC4)nc23)cc1OC` (centres unmarked) [Example 69, 4-[3-(3,4-Dimethoxy-phenyl)-pyrazolo[1,5-a]pyrimidin-5-ylamino]-cyclohexanol], for which the IC50 was less than 1 µM.

For orientation: IC50 means the concentration that gives 50% inhibition.
